Laboratory results: US20160039825A1 (BIOGEN MA INC., priority 2013, published 2016)

target: T1, Human ATX protein (Homo sapiens, UniProt Q13822); experiment: Autotaxin (ATX) assay, FRET with FS-3 substrate; type: biochemical; settings: upper bound bins (no greater than 100, 250 or 500 nM); FS-3 2 μM, ATX 1.0 μg/mL
T1 construct: made in house
Text: ATX (Autotaxin) is a 125 KDa glycoprotein with lysophospholipase D (LPLD) activity that generates the bioactive lipid lysophosphatidic acid (LPA) from lysophosphatidylcholine (LPC). The ATX biochemical assay utilizes a FRET (fluorescence resonance energy transfer) technology platform. The fluorescence signal of FRET substrate FS-3 is quenched due to intra-molecular FRET of a fluorophore to a non-fluorescing quencher (Ferguson, C. G., et al., Org Lett. 2006 May 11; 8(10): 2023-2026, which is incorporated by reference in its entirety). ATX catalyzes the hydrolysis of the substrate which separates the dabsyl quencher from the fluorescein reporter, which becomes fluorescent. The reaction is monitored by a SpectraMax M5 (Molecular Devices, Sunnyvale, Calif.) with at excitation wavelength 485 nm and emission wavelength […].
Fatty acid free-BSA (Sigma A8806): 10 mg/mL in H2O, stored at 4° C.
2×ATX assay buffer: 100 mM Tris, 280 mM NaCl, 10 mM KCl, 2 mM CaCl2, 2 mM MgCl2, pH 7.4.
Human ATX protein: expressed and purified in house. Stored at −80° C.
Substrate FS-3 (Echelon, L-2000): 100 μg in 77.74 μL H2O (1 mM stock), stored at −20° C.
384-well flat bottom plates—Corning #3575.
Compound dilution—All compounds were provided at 10 mM in 100% DMSO. In the first well, 2 μL of 10 mM compound was added to 78 μL of DMSO (1:40 dilution). In subsequent wells 3-fold dilution (total 10 dilutions) were performed.
1×ATX assay buffer was made up with a final concentration of 1 mg/mL fatty acid free-BSA using 2×ATX assay buffer, 10 mg/ml fatty acid free-BSA and ddH2O.
ATX protein was diluted with 1×ATX assay buffer to a concentration of 1.32 μg/mL (1.32×). 38 μL was added per well to the assay plate. The final concentration of ATX in the reaction as 1.0 μg/mL.
2 μL per well of compounds was transferred to provide the desired concentration. The plate was centrifuged, then incubated at room temperature for 30 minutes on the shaker.
FS-3 was diluted with 1×ATX assay buffer to a concentration of FS-3 of 10 μM (5×). Then, 10 μL was added per well to the assay plate. The final concentration of FS-3 in the reaction was 2 μM. The plate was centrifuged. The plate was kept shaking at room temperature for 2 hours. Because FS-3 substrate is light sensitive, plates were kept covered and protected from light.
Fluorescence was measured using SpectraMax M5 (excitation at 485 nm/emission at 538 nm, top read).

`O=C(OCc1cc(C(F)(F)F)cc(C(F)(F)F)c1)N1CCCn2nc(C(=O)N3CCOCC3)cc2C1` [Example 30, 3,5-Bis(trifluoromethyl)benzyl 2-(morpholine-4-carbonyl)-7,8-dihydro-4H-pyrazolo[1,5-a][1,4]diazepine-5(6H)-carboxylate] and `O=C(OCc1cc(C(F)(F)F)cc(C(F)(F)F)c1)N1CCCn2nc(C(=O)N3CCC(F)CC3)cc2C1` [Example 32, 3,5-Bis(trifluoromethyl)benzyl 2-(4-fluoropiperidine-1-carbonyl)-7,8-dihydro-4H-pyrazolo[1,5-a][1,4]diazepine-5(6H)-carboxylate] cannot be ordered by IC50: no more than 0.1 µM for the first, no more than 0.1 µM for the second.

`O=C(OCc1cc(C(F)(F)F)cc(C(F)(F)F)c1)N1CCCn2nc(C(=O)N3CCC(O)CC3)cc2C1` [Example 31, 3,5-Bis(trifluoromethyl)benzyl 2-(4-hydroxypiperidine-1-carbonyl)-7,8-dihydro-4H-pyrazolo[1,5-a][1,4]diazepine-5(6H)-carboxylate] and `O=C(O)C1CC2CCCC(C1)N2C(=O)c1cc2n(n1)CCCN(C(=O)OCc1cc(C(F)(F)F)cc(C(F)(F)F)c1)C2` (stereo not shown) [Example 63, 9-(5-((3,5-Bis(trifluoromethyl)benzyloxy)carbonyl)-5,6,7,8-tetrahydro-4H-pyrazolo[1,5-a][1,4]diazepine-2-carbonyl)-9-aza-bicyclo[3.3.1]nonane-3-carboxylic acid] cannot be ordered by IC50: no more than 0.1 µM for the first, no more than 0.1 µM for the second.

`O=C(O)C1CC2CCCC(C1)N2C(=O)c1cc2n(n1)CCN(C(=O)OCc1cc(Cl)cc(Cl)c1)C2` (stereo not shown) [Example 41, 9-(5-(((3,5-Dichlorobenzyl)oxy)carbonyl)-4,5,6,7-tetrahydropyrazolo[1,5-a]pyrazine-2-carbonyl)-9-azabicyclo[3.3.1]nonane-3-carboxylic acid] and `O=C(O)C1CC2CCCC(C1)N2C(=O)c1cc2n(n1)CCN(C(=O)OCc1cc(F)cc(Cl)c1)C2` (stereo not shown) [Example 46, 9-(5-(((3-Chloro-5-fluorobenzyl)oxy)carbonyl)-4,5,6,7-tetrahydropyrazolo[1,5-a]pyrazine-2-carbonyl)-9-azabicyclo[3.3.1]nonane-3-carboxylic acid] cannot be ordered by IC50: no more than 0.1 µM for the first, no more than 0.1 µM for the second.

`O=C(O)C1CC2CCCC(C1)N2C(=O)c1cc2n(n1)CCN(C(=O)OCc1cccc(Cl)c1)C2` (stereo not shown) [Example 42, 9-(5-(((3-chlorobenzyl)oxy)carbonyl)-4,5,6,7-tetrahydropyrazolo[1,5-a]pyrazine-2-carbonyl)-9-azabicyclo[3.3.1]nonane-3-carboxylic acid] and `O=C(O)C1CC2CCCC(C1)N2C(=O)c1cc2n(n1)CCCN(C(=O)OCc1cccc(Cl)c1)C2` (stereo not shown) [Example 57, 9-(5-((3-Chlorobenzyloxy)carbonyl)-5,6,7,8-tetrahydro-4H-pyrazolo[1,5-a][1,4]diazepine-2-carbonyl)-9-aza-bicyclo[3.3.1]nonane-3-carboxylic acid] cannot be ordered by IC50: no more than 0.5 µM for the first, no more than 0.25 µM for the second.

`O=C(O)C1CC2CCCC(C1)N2C(=O)c1cc2n(n1)CCN(C(=O)OCc1cccc(C(F)(F)F)c1)C2` (stereo not shown) [Example 43, 9-(5-(((3-(Trifluoromethyl)benzyl)oxy)carbonyl)-4,5,6,7-tetrahydropyrazolo[1,5-a]pyrazine-2-carbonyl)-9-azabicyclo[3.3.1]nonane-3-carboxylic acid] and `O=C(O)C1CC2CCCC(C1)N2C(=O)c1cc2n(n1)CCCN(C(=O)OCc1cccc(C(F)(F)F)c1)C2` (stereo not shown) [Example 58, 9-(5-((3-(Trifluoromethyl)benzyloxy)carbonyl)-5,6,7,8-tetrahydro-4H-pyrazolo[1,5-a][1,4]diazepine-2-carbonyl)-9-aza-bicyclo[3.3.1]nonane-3-carboxylic acid] cannot be ordered by IC50: no more than 0.1 µM for the first, no more than 0.1 µM for the second.

`O=C(O)C1CC2CCCC(C1)N2C(=O)c1cc2n(n1)CCN(C(=O)OCc1ccc(C(F)(F)F)cc1)C2` (stereo not shown) [Example 45, 9-(5-(((4-(Trifluoromethyl)benzyl)oxy)carbonyl)-4,5,6,7-tetrahydropyrazolo[1,5-a]pyrazine-2-carbonyl)-9-azabicyclo[3.3.1]nonane-3-carboxylic acid] and `O=C(O)C1CC2CCCC(C1)N2C(=O)c1cc2n(n1)CCCN(C(=O)OCc1ccc(C(F)(F)F)cc1)C2` (stereo not shown) [Example 60] cannot be ordered by IC50: no more than 0.25 µM for the first, no more than 0.1 µM for the second.

`O=C(O)C1CC2CCCC(C1)N2C(=O)c1cc2n(n1)CCN(C(=O)OCc1cc(C(F)(F)F)cc(C(F)(F)F)c1)C2` (stereo not shown) [Example 48, 9-(5-(((3,5-Bis(trifluoromethyl)benzyl)oxy)carbonyl)-4,5,6,7-tetrahydropyrazolo[1,5-a]pyrazine-2-carbonyl)-9-azabicyclo[3.3.1]nonane-3-carboxylic acid] and `O=C(O)C1CC2CCCC(C1)N2C(=O)c1cc2n(n1)CCCN(C(=O)OCc1cc(F)cc(F)c1)C2` (stereo not shown) [Example 62, 9-(5-((3,5-Trifluorobenzyloxy)carbonyl)-5,6,7,8-tetrahydro-4H-pyrazolo[1,5-a][1,4]diazepine-2-carbonyl)-9-aza-bicyclo[3.3.1]nonane-3-carboxylic acid] cannot be ordered by IC50: no more than 0.1 µM for the first, no more than 0.1 µM for the second.

`O=C(O)C1CC2CCCC(C1)N2C(=O)c1cc2n(n1)CCCN(C(=O)NCc1cc(Cl)cc(Cl)c1)C2` (stereo not shown) [Example 49, 9-(5-((3,5-Dichlorobenzyl)carbamoyl)-5,6,7,8-tetrahydro-4H-pyrazolo[1,5-a][1,4]diazepine-2-carbonyl)-9-azabicyclo[3.3.1]nonane-3-carboxylic acid] and `O=C(O)C1CC2CCCC(C1)N2C(=O)c1cc2n(n1)CCCN(C(=O)OCc1cc(F)cc(Cl)c1)C2` (stereo not shown) [Example 61, 9-(5-((3-Chloro-5-fluorobenzyloxy)carbonyl)-5,6,7,8-tetrahydro-4H-pyrazolo[1,5-a][1,4]diazepine-2-carbonyl)-9-aza-bicyclo[3.3.1]nonane-3-carboxylic acid] cannot be ordered by IC50: no more than 0.1 µM for the first, no more than 0.1 µM for the second.

`O=C(O)C1CC2CCCC(C1)N2C(=O)c1cc2n(n1)CCCN(C(=O)OCc1ccc(Cl)cc1)C2` (stereo not shown) [Example 59, 9-(5-((4-Chlorobenzyloxy)carbonyl)-5,6,7,8-tetrahydro-4H-pyrazolo[1,5-a][1,4]diazepine-2-carbonyl)-9-aza-bicyclo[3.3.1]nonane-3-carboxylic acid] and `O=C(O)c1cc2n(n1)CCCN(C(=O)OCc1cc(F)cc(Cl)c1)C2` [Example 68, 5-(((3-Chloro-5-fluorobenzyl)oxy)carbonyl)-5,6,7,8-tetrahydro-4H-pyrazolo[1,5-a][1,4]diazepine-2-carboxylic acid] cannot be ordered by IC50: no more than 0.1 µM for the first, no more than 0.5 µM for the second.

`O=C(O)c1cc2n(n1)CCCN(C(=O)OCc1cc(F)cc(C(F)(F)F)c1)C2` [Example 64, 5-(((3-Fluoro-5-(trifluoromethyl)benzyl)oxy)carbonyl)-5,6,7,8-tetrahydro-4H-pyrazolo[1,5-a][1,4]diazepine-2-carboxylic acid] and `O=C(O)c1cc2n(n1)CCCN(C(=O)OCc1cc(Cl)cc(C(F)(F)F)c1)C2` [Example 65, 5-(((3-Chloro-5-(trifluoromethyl)benzyl)oxy)carbonyl)-5,6,7,8-tetrahydro-4H-pyrazolo[1,5-a][1,4]diazepine-2-carboxylic acid] cannot be ordered by IC50: no more than 0.1 µM for the first, no more than 0.1 µM for the second.

`O=C(O)c1cc2n(n1)CCCN(C(=O)OCc1cccc(C(F)(F)F)c1)C2` [Example 67, 5-(((3-(Trifluoromethyl)benzyl)oxy)carbonyl)-5,6,7,8-tetrahydro-4H-pyrazolo[1,5-a][1,4]diazepine-2-carboxylic acid] and `O=C(O)c1cc2n(n1)CCCN(C(=O)OCc1cc(F)cc(Br)c1)C2` [Example 75, 5-(((3-Bromo-5-fluorobenzyl)oxy)carbonyl)-5,6,7,8-tetrahydro-4H-pyrazolo[1,5-a][1,4]diazepine-2-carb oxylic acid] cannot be ordered by IC50: no more than 0.5 µM for the first, no more than 0.5 µM for the second.
